Assays:
any wheeze in children = experiment: Project Viva vitamin D study: risk of any wheeze during the first three years of life; type: in vivo, human; conditions: n=416 cases; adjusted for the 12 factors in model A
Text: Project Viva is a prospective cohort study examining prenatal factors in relation to outcomes of pregnancy and child health. Participants were recruited at eight obstetric offices of Harvard Vanguard Medical Associates, a large multispecialty urban/suburban group practice in eastern Massachusetts. At the 1st study visit, directly after the person's initial clinical prenatal visit, we obtained informed consent, administered a brief interview, and provided a take-home self-administered questionnaire. At the 2nd study visit, at 26 to 28 weeks gestation, we again administered a brief interview and provided a questionnaire. Project Viva participants gave birth at Brigham and Women's Hospital or Beth Israel Deaconess Medical Center in Boston. Within 3 days after delivery, we interviewed the mother. […]
We obtained data directly from participants and from medical records, as detailed previously (Yunginger et al., Am. Rev. Respir. Dis. 146:888-894, 1992). Briefly, maternal diet assessment at both the 1st and 2nd visits was based on a validated 166-item semi-quantitative food frequency questionnaire (FFQ) (Fawzi et al., Ann. Epidemiol. 14:754-762, 2004). […] To assess vitamin and supplement intake during the 1st trimester, we administered a separate interview that assessed dose, duration, and brand/type of multivitamin, prescribed prenatal vitamin, and supplements. […]

[1] = tested on: respiratory infection in children at age 3 years; experiment: Project Viva vitamin D study: risk of respiratory infection in children at age 3 years; type: in vivo, human
Text: (§1) Project Viva is a prospective cohort study examining prenatal factors in relation to outcomes of pregnancy and child health. Participants were recruited at eight obstetric offices of Harvard Vanguard Medical Associates, a large multispecialty urban/suburban group practice in eastern Massachusetts. At the 1st study visit, directly after the person's initial clinical prenatal visit, we obtained informed consent, administered a brief interview, and provided a take-home self-administered questionnaire. At the 2nd study visit, at 26 to 28 weeks gestation, we again administered a brief interview and provided a questionnaire. Project Viva participants gave birth at Brigham and Women's Hospital or Beth Israel Deaconess Medical Center in Boston. Within 3 days after delivery, we interviewed the mother. We reassessed mothers and children at 6 months, 1 year, and annually thereafter. At the time of this analysis, age 3 visits were almost complete.
(§2) We obtained data directly from participants and from medical records, as detailed previously (Yunginger et al., Am. Rev. Respir. Dis. 146:888-894, 1992). Briefly, maternal diet assessment at both the 1st and 2nd visits was based on a validated 166-item semi-quantitative food frequency questionnaire (FFQ) (Fawzi et al., Ann. Epidemiol. 14:754-762, 2004). We slightly modified the FFQ for use in pregnancy from the FFQ used in the Nurses' Health Study and other cohort studies (Willett, New York: Oxford University Press; 1998). Modifications for use in pregnancy included changing the time referent, beverage section, and vitamin and supplement assessment. The FFQ used at the 1st visit reflected intakes in the 1st trimester and the time referent was “during this pregnancy.” In addition, we collected information on beverage intake during 2 specified time periods: before and after the participant learned that they were pregnant. To assess vitamin and supplement intake during the 1st trimester, we administered a separate interview that assessed dose, duration, and brand/type of multivitamin, prescribed prenatal vitamin, and supplements. The FFQ used at the 2nd visit (26 to 28 weeks of gestation) reflected intakes during the 2nd trimester; the time referent was “during the past 3 months.” The 2nd trimester instrument was the same as the 1st trimester, except that we assessed use of vitamins/supplements as part of the self-completed FFQ and we collected beverage information during the one time period.
(§3) To calculate intake of nutrients, we used the Harvard nutrient composition database (Hu, N. Engl. J. Med. 337:1491-1499, 1997). We calculated vitamin D intake for each FFQ, and the mean of these two values was the assigned exposure for each woman during pregnancy (Rifas-Shiman, Paediatr. Perinat. Epidemiol. 20:35-42, 2006). We used a similar approach for retinol and calcium intakes. For analyses based on foods rather than nutrients, we focused on milk (servings/day), the major contributor to vitamin D intake in the diet. We also examined foods with possible effects on asthma risk (McKeever et al., Am. J. Respir. Crit. Care Med. 170:725-729, 2004; Devereux et al., J. Allergy Clin. Immunol. 115:1109-1117, 2005): fruits and vegetables (servings/day) and fish (servings/week).
(§4) Finally, we examined two related outcomes: respiratory infection and eczema. We defined “respiratory infection” as a positive response to at least one of three questions on any of the annual questionnaires: “since your child was born (was 12 months old, was 2 years old), have you been told by a health professional that he/she has: (a) bronchiolitis; (b) pneumonia; (c) bronchitis, croup, or any other respiratory infection?” We defined “eczema” as a positive response to one question on any of the annual questionnaires: “have you ever been told by a health care professional that your child has eczema?”
(§5) To assess the associations between vitamin D intake and clinical outcomes, we used multiple logistic regression models. […]

[2] = tested on: recurrent wheeze in children at age 3 years; experiment: Project Viva vitamin D study: maternal intake during pregnancy and risk of recurrent wheeze in children at age 3 years; type: in vivo, human
Text: as §1
Exclusion criteria included multiple gestation (e.g., twins), inability to answer questions in English, plans to move out of the area before delivery, and gestational age greater than 22 completed weeks at initial prenatal clinical appointment. Additional details of recruitment and follow-up have been presented elsewhere (Yunginger et al., Am. Rev. Respir. Dis. 146:888-894, 1992). Among 2,128 delivered infants in Project Viva, we excluded 228 because of missing first and second trimester diet assessment data and an additional 37 with a gestation of less than 34 completed weeks. […] Of the remaining 1,495 infants, 76 were lost to follow-up and 225 have not yet exited the 3-year time-window, leaving an analysis sample of 1,194 participants. Human subjects committees of Harvard Pilgrim Health Care, Brigham and. Women's Hospital, and Beth Israel Deaconess Medical Center approved the study protocols.
as §2
as §3, with “We also examined foods with possible effects on asthma risk (McKeever et al., Am. J. Respir. Crit. Care Med. 170:725-729, 2004; Devereux et al., J. Allergy Clin. Immunol. 115:1109-1117, 2005): fruits and vegetables (servings/day) and fish (servings/week).” left out

[3] = tested on: cellular response to dexamethasone; conditions: steroid-resistant asthmatics; cited from earlier work
[4] = tested on: eczema in children at age 3 years; experiment: Project Viva vitamin D study: risk of eczema in children at age 3 years; type: in vivo, human
Text: as §1, §2, §3, §4, §5

[5] = quartile 2 (median 513 IU) vs quartile 1
[6] = quartile 3 (median 603 IU) vs quartile 1
[7] = quartile 4 (median 724 IU) vs quartile 1

vitamin D
Odds ratio, any wheeze, per 100 IU increase of maternal intake (any wheeze in children): 0.89
Effect of maternal intake on risk of respiratory infections ([1]; children at age 3 years): did not affect risk
Odds ratio, respiratory infection, Multivariate model 1 [1, 5]: 0.73
Odds ratio, respiratory infection, Multivariate model 2 [1, 5]: 0.74
Odds ratio, respiratory infection, Unadjusted [1, 5]: 0.68
Odds ratio, respiratory infection, Multivariate model 1 [1, 6]: 1.01
Odds ratio, respiratory infection, Multivariate model 2 [1, 6]: 1.01
Odds ratio, respiratory infection, Unadjusted [1, 6]: 0.92
Odds ratio, respiratory infection, Multivariate model 1 [1, 7]: 0.74
Odds ratio, respiratory infection, Multivariate model 2 [1, 7]: 0.75
Odds ratio, respiratory infection, Unadjusted [1, 7]: 0.68
Multivariate OR per 100 IU/day increase, recurrent wheeze ([2]; LMP in other seasons): 0.85
Multivariate OR per 100 IU/day increase, recurrent wheeze ([2]; LMP in winter): 0.62
Odds ratio, recurrent wheeze, model 2 with further control for child vitamin D intake from foods at 2 years ([2]; maternal intake quartiles, Table 2 model 2 plus child vitamin D intake from foods at 2 years): 0.34
Odds ratio, recurrent wheeze, model 2 with further control for child use of a vitamin supplement at age 6 months ([2]; maternal intake quartiles, Table 2 model 2 plus child vitamin supplement at 6 months): 0.39
Odds ratio, recurrent wheeze with 4+ wheezing episodes, per 100 IU increase ([2]; n=86 cases, adjusted for the 12 factors in model A): 0.79
Odds ratio, recurrent wheeze and a doctor-diagnosis of asthma, per 100 IU increase ([2]; n=132 cases, adjusted for the 12 factors in model A): 0.82
Odds ratio, recurrent wheeze, further adjustment for race/ethnicity and college education ([2]; per 100 IU/day maternal intake): 0.81
Odds ratio, recurrent wheeze, per 100 IU/day, Food Only, Unadjusted ([2]; per 100 IU/day maternal intake, Food Only): 0.81
Odds ratio, recurrent wheeze, per 100 IU/day, Supplement Only, Unadjusted ([2]; per 100 IU/day maternal intake, Supplement Only): 0.82
Odds ratio, recurrent wheeze, per 100 IU/day, Total intake, Unadjusted ([2]; per 100 IU/day maternal intake, Total): 0.81
Odds ratio, recurrent wheeze, per 100 IU/day, Food Only, Multivariate model A ([2]; per 100 IU/day, Food Only, adjusted for 12 factors): 0.79
Odds ratio, recurrent wheeze, per 100 IU/day, Food Only, Multivariate model B ([2]; per 100 IU/day, Food Only, model A plus vitamin D from supplements): 0.80
Odds ratio, recurrent wheeze, per 100 IU/day, Supplement Only, Multivariate model A ([2]; per 100 IU/day, Supplement Only, adjusted for 12 factors): 0.82
Odds ratio, recurrent wheeze, per 100 IU/day, Supplement Only, Multivariate model B ([2]; per 100 IU/day, Supplement Only, model A plus vitamin D from foods): 0.82
Odds ratio, recurrent wheeze, per 100 IU/day, Total, Multivariate model A ([2]; per 100 IU/day, Total, adjusted for 12 factors): 0.80
Odds ratio, recurrent wheeze, per 100 IU/day, Total, Multivariate model C ([2]; per 100 IU/day, Total, model A plus maternal intake of calcium): 0.79
Odds ratio, recurrent wheeze, per 100 IU/day, Total, Multivariate model D ([2]; per 100 IU/day, Total, model A plus maternal intake of retinol): 0.81
Odds ratio, recurrent wheeze, Multivariate model 1 [2, 5]: 0.49
Odds ratio, recurrent wheeze, Multivariate model 2 [2, 5]: 0.47
Odds ratio, recurrent wheeze, Unadjusted ([2]; quartile 2 of maternal intake (median 513 IU, range 446-562) vs quartile 1, n = 1,194 pairs): 0.55
Odds ratio, recurrent wheeze, Multivariate model 1 [2, 6]: 0.56
Odds ratio, recurrent wheeze, Multivariate model 2 [2, 6]: 0.54
Odds ratio, recurrent wheeze, Unadjusted ([2]; quartile 3 (median 603 IU, range 563-658) vs quartile 1): 0.55
Odds ratio, recurrent wheeze, Multivariate model 1 [2, 7]: 0.41
Odds ratio, recurrent wheeze, Multivariate model 2 [2, 7]: 0.38
Odds ratio, recurrent wheeze, Unadjusted ([2]; quartile 4 (median 724 IU, range 659-1,145) vs quartile 1 (median 356 IU)): 0.39
Effect of supplementation on cellular response to dexamethasone [3]: improve the cellular response to dexamethasone
Effect of maternal intake on risk of early childhood eczema ([4]; children at age 3 years): did not affect risk
Odds ratio, eczema, Multivariate model 1 [4, 5]: 0.88
Odds ratio, eczema, Multivariate model 2 [4, 5]: 0.86
Odds ratio, eczema, Unadjusted [4, 5]: 1.00
Odds ratio, eczema, Multivariate model 1 [4, 6]: 0.94
Odds ratio, eczema, Multivariate model 2 [4, 6]: 0.93
Odds ratio, eczema, Unadjusted [4, 6]: 1.03
Odds ratio, eczema, Multivariate model 1 [4, 7]: 0.95
Odds ratio, eczema, Multivariate model 2 [4, 7]: 0.92
Odds ratio, eczema, Unadjusted [4, 7]: 1.10
